Laboratory results as given in patent US20250282735A1, “BICYCLE COMPOUNDS AS TEAD INHIBITOR” (DONG-A ST CO., LTD., priority 2022, published 2025).
pIC50: −log10 of the molar value.

Experiments:
[1] = tested on: TEAD reporter-containing human breast cancer cell line MCF7; assay: TEAD reporter (luciferase) assay; type: cell-based; conditions: TEAD reporter MCF7 cells, 24 hours treatment, 1% serum media
Method: The TEAD reporter-containing human breast cancer cell line MCF7 (60618, BPS bioscience) was cultured according to the manufacturer's instructions. Cells were plated in 96-well white plates at a density of 30,000 per well and incubated overnight. The following day cells were treated with small molecules in 1% serum media (0.1% v/v DMSO). After 24 hours of the treatment, cell viability was evaluated by using CCK-8 reagent (CK04, Dojindo) and measuring absorbance at 450 nm. Then, the assay for luciferase activity was performed using Dual-Glo® Luciferase Assay System (Promega, E2940) following the manufacturer's instructions. Luminescence intensity was measured and the potency of the compounds was determined by IC50 value generated from non-linear regression analysis of the dose-response curves.
IC50 for luciferase activity are shown in the Table 1 below and designated within the following ranges. [+++: ≤0.1 μM, ++: >0.1 μM to ≤1 μM, +: >1 μM to ≤10 μM, −: >10 μM]

[2] = tested on: MSTO-211H cells; assay: Proliferation assay (EdU incorporation), MSTO-211H; type: cell-based; conditions: Homo sapiens, 72 h, YAP-driven MSTO-211H (LATS1 mutation), 3 days with inhibitor, 1% serum
Method: The anti-proliferative activity of TEAD inhibitors was evaluated in cells with different properties for YAP; “YAP-driven” cells (MSTO-211H, NCI-H226) in which YAP located in the nucleus and “YAP-independent” cells (OCM1, NCI-H28) where YAP located in the cytoplasm. […] TEAD inhibitors were evaluated with cell lines with these YAP profiling and mutational status.
The next day, replace it with cell starvation medium containing 1% serum. After one day of growth in the starvation medium, the cells were incubated for 3 days with TEAD inhibitors in a concentration range of 0.01-10 μM. After 3 days, EdU (Invitrogen) at a concentration of 10 µM was added to the starvation medium and incubated for an additional 24 hours. After removing the starvation medium remaining in each well, wash the wells with PBS. Cells were fixed with 4% paraformaldehyde (Electron microscopy sciences) at room temperature for 20 minutes. After removing the fix solution remaining in each well, wash the wells with PBS and the cells were permeabilized for 40 minutes by adding 0.5% triton X-100 (Sigma Aldrich). After removing the permeabilization solution remaining in each well, the EdU labeling was performed according to the instructions of the manufacturer's instructions (Click-iT™ Cell Reaction Buffer Kit, Invitrogen). After the Click reaction for EdU labeling, nuclei were stained with […] (Thermo Scientific) for total cell count analysis. After plate preparation for detection, Image acquisition was performed using the ImageXpress Micro XLS. The acquired images were analyzed using MetaXpress software (molecular devices). Through this experimental method, it was possible to confirm the inhibitory activity of TEAD inhibitors by detection EdU incorporated into proliferating cells.
IC50 for cell proliferation inhibition activity are shown in the Table 2 below and designated within the following ranges. [+++: ≤0.1 μM, ++: >0.1 μM to ≤1 μM, +: >1 μM to ≤10μ, −: >10 μM]

| Compound | pIC50 [1] | pIC50 [2] |
| --- | --- | --- |
| C=CC(=O)Nc1ccc2c(c1)c(/C=C/C1CCC(F)(F)CC1)nn2C(C)C [Compound 5, (E)-N-(3-(2-(4,4-Difluorocyclohexyl)vinyl)-1-isopropyl-1H-indazol-5-yl)acrylamide] | 6.00 to 7.00 | 6.00 to 7.00 |
| C=CC(=O)Nc1cnc2c(c1)c(/C=C/c1ccc(Cl)cc1)cn2C1CCCC1 [Compound 10, (E)-N-(3-(4-Chlorostyryl)-1-cyclopentyl-1H-pyrrolo[2,3-b]pyridin-5-yl)acrylamide] | 5.00 to 6.00 | 6.00 to 7.00 |
| C=CC(=O)Nc1ccc2c(c1)c(C1=CCC(F)(F)CC1)cn2C [Compound 23, N-(3-(4,4-Difluorocyclohex-1-en-1-yl)-1-methyl-1H-indol-5-yl)acrylamide] | ≥ 7.00 | 6.00 to 7.00 |
| C=CC(=O)Nc1ccc2c(c1)c(/C=C/c1ccc(Cl)cc1)cn2CC [Compound 26, (E)-N-(3-(4-Chlorostyryl)-1-ethyl-1H-indol-5-yl)acrylamide] | 6.00 to 7.00 | 6.00 to 7.00 |
| C=CC(=O)Nc1ccc2c(c1)c(/C=C/C1CCC(F)(F)CC1)cn2C(C)C [Compound 27, (E)-N-(3-(2-(4,4-Difluorocyclohexyl)vinyl)-1-isopropyl-1H-indol-5-yl)acrylamide] | 6.00 to 7.00 | 6.00 to 7.00 |
| C=CC(=O)Nc1cnc2c(c1)c(/C=C/C1CCC(F)(F)CC1)nn2CC [Compound 32, (E)-N-(3-(2-(4,4-Difluorocyclohexyl)vinyl)-1-ethyl-1H-pyrazolo[3,4-b]pyridin-5-yl)acrylamide] | ≥ 7.00 | 6.00 to 7.00 |
| C=CC(=O)N(Cc1ccccc1)c1cnc2c(c1)c(/C=C/c1ccc(Cl)cc1)cn2C [Example 67, (E)-N-Benzyl-N-(3-(4-chlorostyryl)-1-methyl-1H-pyrrolo[2,3-b]pyridin-5-yl)acrylamide] | – | 5.00 to 6.00 |
| C=CC(=O)N(Cc1ccncc1)c1cnc2c(c1)c(/C=C/c1ccc(Cl)cc1)cn2C [Example 68, (E)-N-(3-(4-Chlorostyryl)-1-methyl-1H-pyrrolo[2,3-b]pyridin-5-yl)-N-(pyridin-4-ylmethyl)acrylamide] | – | 5.00 to 6.00 |
| C=CC(=O)Nc1cnc2ccn(CC3CCCCC3)c2c1 [Example 77, N-(1-(Cyclohexylmethyl)-1H-pyrrolo[3,2-b]pyridin-6-yl)acrylamide] | – | 6.00 to 7.00 |
| C=CC(=O)Nc1cnc2c(c1)c(-c1cccc(N3CCCCC3)c1)cn2C [Example 88, N-(1-Methyl-3-(3-(piperidin-1-yl)phenyl)-1H-pyrrolo[2,3-b]pyridin-5-yl)acrylamide] | – | 6.00 to 7.00 |
| C=CC(=O)Nc1cnc2c(c1)c(-c1ccc(C(F)(F)F)cc1)cn2CC [Example 95, N-(1-Ethyl-3-(4-(trifluoromethyl)phenyl)-1H-pyrrolo[2,3-b]pyridin-5-yl)acrylamide] | – | 6.00 to 7.00 |
| C=CC(=O)Nc1cnc2c(c1)c(-c1ccc(C(F)(F)F)cc1)cn2C(C)C [Example 96, N-(1-isopropyl-3-(4-(trifluoromethyl)phenyl)-1H-pyrrolo[2,3-b]pyridin-5-yl)acrylamide] | – | 6.00 to 7.00 |
| C=CC(=O)Nc1cnc2c(c1)c(-c1ccc(CCC)cc1)cn2C [Example 100, N-(1-Methyl-3-(4-propylphenyl)-1H-pyrrolo[2,3-b]pyridin-5-yl)acrylamide] | – | ≥ 7.00 |
| C=CC(=O)Nc1cnc2c(c1)c(-c1ccc(F)cc1)cn2C [Example 103, N-(3-(4-Fluorophenyl)-1-methyl-1H-pyrrolo[2,3-b]pyridin-5-yl)acrylamide] | – | 6.00 to 7.00 |
| C=CC(=O)Nc1cnc2c(c1)c(-c1ccc(C)cc1)cn2C [Example 104, N-(1-Methyl-3-(p-tolyl)-1H-pyrrolo[2,3-b]pyridin-5-yl)acrylamide] | – | 6.00 to 7.00 |
| C=CC(=O)Nc1cnc2c(c1)c(-c1ccc(C(F)(F)F)cc1)cn2C(F)F [Example 129, N-(1-(Difluoromethyl)-3-(4-(trifluoromethyl)phenyl)-1H-pyrrolo[2,3-b]pyridin-5-yl)acrylamide] | – | 6.00 to 7.00 |

Continued, in another order:

| pIC50 [1] | Compound | pIC50 [2] |
| --- | --- | --- |
| 5.00 to 6.00 | C=CC(=O)Nc1cnc2c(c1)c(/C=C/c1ccc(Cl)cc1)nn2CC [Compound 33, (E)-N-(3-(4-Chlorostyryl)-1-ethyl-1H-pyrazolo[3,4-b]pyridin-5-yl)acrylamide] | ≥ 7.00 |
| ≥ 7.00 | C=CC(=O)Nc1cnc2c(c1)c(/C=C/C1CCC(F)(F)CC1)nn2C(C)C [Compound 34, (E)-N-(3-(2-(4,4-Difluorocyclohexyl)vinyl)-1-isopropyl-1H-pyrazolo[3,4-b]pyridin-5-yl)acrylamide] | 6.00 to 7.00 |
| 6.00 to 7.00 | C=CC(=O)Nc1cnc2c(c1)c(/C=C/c1ccc(Cl)cc1)nn2C(C)C [Compound 35, (E)-N-(3-(4-Chlorostyryl)-1-isopropyl-1H-pyrazolo[3,4-b]pyridin-5-yl)acrylamide] | 6.00 to 7.00 |
| 6.00 to 7.00 | C=CC(=O)Nc1cc(F)c2c(c1)c(/C=C/C1CCC(F)(F)CC1)cn2C [Compound 36, (E)-N-(3-(2-(4,4-Difluorocyclohexyl)vinyl)-7-fluoro-1-methyl-1H-indol-5-yl)acrylamide] | ≥ 7.00 |
| 6.00 to 7.00 | C=CC(=O)Nc1cc(F)c2c(c1)c(/C=C/c1ccc(Cl)cc1)cn2C [Compound 37, (E)-N-(3-(4-Chlorostyryl)-7-fluoro-1-methyl-1H-indol-5-yl)acrylamide] | ≥ 7.00 |
| 5.00 to 6.00 | C=CC(=O)Nc1cnc2c(c1)c(-c1ccc(C(F)(F)F)cc1)cn2C [Compound 51, N-(1-Methyl-3-(4-(trifluoromethyl)phenyl)-1H-pyrrolo[2,3-b]pyridin-5-yl)acrylamide] | ≥ 7.00 |
| ≥ 7.00 | C=CC(=O)Nc1cnc2c(c1)c(CCC1CCC(F)(F)CC1)cn2C [Example 64, N-(3-(2-(4,4-Difluorocyclohexyl)ethyl)-1-methyl-1H-pyrrolo[2,3-b]pyridin-5-yl)acrylamide] | ≥ 7.00 |
| 5.00 to 6.00 | Cn1cc(/C=C/c2ccc(Cl)cc2)c2cc(NC(=O)CCl)cnc21 [Example 70, (E)-2-Chloro-N-(3-(4-chlorostyryl)-1-methyl-1H-pyrrolo[2,3-b]pyridin-5-yl) acetamide] | 5.00 to 6.00 |
| 6.00 to 7.00 | C=CC(=O)Nc1cnc2c(c1)c(/C=C/c1ccc(Cl)s1)cn2C [Example 81, (E)-N-(3-(2-(5-Chlorothiophen-2-yl)vinyl)-1-methyl-1H-pyrrolo[2,3-b]pyridin-5-yl)acrylamide] | ≥ 7.00 |
| 6.00 to 7.00 | C=CC(=O)Nc1cnc2c(c1)c(-c1cccc(/C=C/C3CCC(F)(F)CC3)c1)cn2C [Example 85, (E)-N-(3-(3-(2-(4,4-Difluorocyclohexyl)vinyl)phenyl)-1-methyl-1H-pyrrolo[2,3-b]pyridin-5-yl)acrylamide] | 6.00 to 7.00 |
| 6.00 to 7.00 | C=CC(=O)Nc1cnc2c(c1)c(-c1ccc(C3CC3)cc1)cn2C [Example 106, N-(3-(4-Cyclopropylphenyl)-1-methyl-1H-pyrrolo[2,3-b]pyridin-5-yl)acrylamide] | ≥ 7.00 |
| ≥ 7.00 | C=CC(=O)Nc1cnc2c(c1)c(-c1ccc3ccccc3c1)cn2C [Example 107, N-(1-Methyl-3-(naphthalen-2-yl)-1H-pyrrolo[2,3-b]pyridin-5-yl)acrylamide] | ≥ 7.00 |
| 6.00 to 7.00 | C=CC(=O)Nc1cnc2c(c1)c(-c1ccc(SCC)cc1)cn2C [Example 111, N-(3-(4-(Ethylthio)phenyl)-1-methyl-1H-pyrrolo[2,3-b]pyridin-5-yl)acrylamide] | ≥ 7.00 |
| 5.00 to 6.00 | C=C(F)C(=O)Nc1cnc2c(c1)c(/C=C/c1ccc(Cl)cc1)cn2C [Example 118, (E)-N-(3-(4-Chlorostyryl)-1-methyl-1H-pyrrolo[2,3-b]pyridin-5-yl)-2-fluoroacrylamide] | ≥ 7.00 |
| 6.00 to 7.00 | [2H]C([2H])([2H])n1cc(/C=C/c2ccc(Cl)cc2)c2cc(NC(=O)C=C)cnc21 [Example 121, (E)-N-(3-(4-Chlorostyryl)-1-(methyl-d3)-1H-pyrrolo[2,3-b]pyridin-5-yl)acrylamide] | ≥ 7.00 |
| ≥ 7.00 | C=CC(=O)Nc1ccc2c(c1)c(C1CCC(C)(C)CC1)cn2C [Example 122, N-(3-(4,4-dimethylcyclohexyl)-1-methyl-1H-indol-5-yl)acrylamide] | 6.00 to 7.00 |
